From patent publication US20120129842A1, “BISTHIAZOLE INHIBITORS OF PRO-MATRIX METALLOPROTEINASE ACTIVATION” (priority 2010, published 2012)
Counter-ions that a name gives are not always drawn.

Key:
[1] = molecular target: T1, proMMP9(67-444;ΔFnII) (SEQ ID NO:5) (Homo sapiens, UniProt P14780, DEL216-390); experiment: ThermoFluor binding assay with proMMP9(67-444;ΔFnII); settings: pH 7.0
T1 construct: start methionine (N); made in house; host or cells: E. coli BL21(DE3) RIL
T1 sequence (P14780 with tags, fused parts or gaps DEL216-390): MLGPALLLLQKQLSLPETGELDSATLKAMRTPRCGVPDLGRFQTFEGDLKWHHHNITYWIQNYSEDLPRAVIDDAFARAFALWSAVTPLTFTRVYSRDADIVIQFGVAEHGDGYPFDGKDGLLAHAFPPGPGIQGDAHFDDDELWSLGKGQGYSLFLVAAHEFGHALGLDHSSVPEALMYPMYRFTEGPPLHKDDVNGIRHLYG
In short: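 Thermal shift binding with 3.5 μM proMMP9(67-444;ΔFnII) and 50 μM 1,8-ANS in 50 mM HEPES pH 7.0, 100 mM NaCl, 2.5 mM MgCl2, 300 μM CaCl2, 0.001% Tween-20, with serially diluted compound. Heated 40 to 90° C at 1° C/min; fluorescence-derived Tm fitted using DSC/ThermoFluor thermodynamic parameters.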

[2] = molecular target: proMMP13(1-268) (SEQ ID NO:7) (Homo sapiens, UniProt P45452); experiment: ThermoFluor binding assay with proMMP13(1-268); set-up: 6xHis (C); made in house; settings: pH 7.0
In short: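 Thermal shift binding with 3.5 μM protein and 25 μM 1,8-ANS in 50 mM HEPES pH 7.0, 100 mM NaCl, 0.001% Tween-20, 2.5 mM MgCl2, 300 μM CaCl2. Samples were heated 40 to 90 °C at 1 °C/min, fluorescence read at 500 nm. Tm shifts across an 11-point DMSO dilution series were fitted with DSC-derived thermodynamic parameters.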

[3] = molecular target: T2, proMMP9(20-445;ΔFnII) (SEQ ID NO:6) (Homo sapiens, UniProt P14780, DEL216-390); experiment: ThermoFluor binding assay with proMMP9(20-445;ΔFnII); settings: pH 7.0
T2 construct: start methionine (N); made in house; host or cells: E. coli BL21(DE3) RIL
T2 sequence (P14780 with tags, fused parts or gaps DEL216-390): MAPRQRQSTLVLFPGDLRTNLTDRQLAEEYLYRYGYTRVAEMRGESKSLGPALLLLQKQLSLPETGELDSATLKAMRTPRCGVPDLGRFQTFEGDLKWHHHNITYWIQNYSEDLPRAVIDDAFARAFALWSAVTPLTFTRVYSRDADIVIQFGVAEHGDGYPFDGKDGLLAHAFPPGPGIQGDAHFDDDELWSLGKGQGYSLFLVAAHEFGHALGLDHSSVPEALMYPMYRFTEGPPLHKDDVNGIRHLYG
In short: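 proMMP9(20-445;ΔFnII) at 2.8 μM with 50 μM 1,8-ANS in 50 mM HEPES pH 7.0, 100 mM NaCl, 0.001% Tween-20, 2.5 mM MgCl2, 300 μM CaCl2; compounds serially diluted in DMSO. Heated 40–90 °C at 1 °C/min, fluorescence read at 500±25 nm. Tm fit by standard equations; binding fit using DSC/TF-derived thermodynamic parameters.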

[4] = molecular target: T3, full-length proMMP9(1-707) (SEQ ID NO:1) (Homo sapiens, UniProt P14780, R574P); experiment: proMMP9/MMP3 P126 Activation Assay; type: biochemical; settings: 20 nM proMMP9, 20 nM MMP3, 80 min 37° C.
T3 construct: made in house; host or cells: HEK293 (proMMP9, secreted); E. coli (MMP3)
Method: The reaction volume was 50 μL. […] Reactivity of residual MMP3 towards P-126 substrate was minimal under these conditions.

T3 sequence (P14780 20-707 R574P): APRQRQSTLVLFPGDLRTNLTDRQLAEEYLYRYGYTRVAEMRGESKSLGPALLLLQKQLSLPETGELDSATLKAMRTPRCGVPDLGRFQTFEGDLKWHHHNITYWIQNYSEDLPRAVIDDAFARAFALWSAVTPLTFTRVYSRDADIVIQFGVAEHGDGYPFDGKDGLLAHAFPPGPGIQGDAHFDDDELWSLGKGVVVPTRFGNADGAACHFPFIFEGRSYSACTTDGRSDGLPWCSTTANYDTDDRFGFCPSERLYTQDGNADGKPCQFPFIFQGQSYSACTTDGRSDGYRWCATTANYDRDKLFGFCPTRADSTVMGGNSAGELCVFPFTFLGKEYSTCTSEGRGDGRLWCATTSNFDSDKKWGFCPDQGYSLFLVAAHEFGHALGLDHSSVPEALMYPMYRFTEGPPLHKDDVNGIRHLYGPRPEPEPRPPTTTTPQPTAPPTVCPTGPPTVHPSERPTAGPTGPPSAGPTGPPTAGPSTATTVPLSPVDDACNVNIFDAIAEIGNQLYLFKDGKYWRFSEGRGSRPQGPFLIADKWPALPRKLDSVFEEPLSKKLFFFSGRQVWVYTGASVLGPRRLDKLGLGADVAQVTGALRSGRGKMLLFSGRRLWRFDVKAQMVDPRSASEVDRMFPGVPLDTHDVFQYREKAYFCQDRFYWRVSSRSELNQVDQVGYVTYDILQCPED

Structure (SMILES) | Kd [1] [nM] | Kd [2] [nM] | Kd [3] [nM] | IC50 [4] [nM]
C=Cc1ccc(OC)c(Nc2nc(-c3sc(C)nc3C)cs2)c1 [Example 140, (2′,4′-Dimethyl-[4,5′]bithiazolyl-2-yl)-(2-methoxy-5-vinyl-phenyl)-amine] | 45000 | 26000 | > 95000 | 5500
Cc1nc(C)c(-c2csc(Nc3cc(S(N)(=O)=O)cc4c3OCC4)n2)s1 [Example 33, 7-(2′,4′-Dimethyl-[4,5′]bithiazolyl-2-ylamino)-2,3-dihydro-benzofuran-5-sulfonic acid amide] | > 95000 | 2900 | 13000 | 7300
Cc1nc(N2CCOCC2)sc1-c1csc(Nc2cc(C(N)=O)ccc2OC(C)C)n1 [Example 89, 4-Isopropoxy-3-(4′-methyl-2′-morpholin-4-yl-[4,5′]bithiazolyl-2-ylamino)-benzamide.TFA] | 390 | 710 | 63 | 330
CC(=O)Nc1nc(C)c(-c2csc(Nc3cc(C(N)=O)ccc3OC(C)C)n2)s1 [Example 3, 3-(2′-Acetylamino-4′-methyl-[4,5′]bithiazolyl-2-ylamino)-4-isopropoxy-benzamide.HBr] | 300 | 300 | 410 | 130
COc1ccc(CC(N)=O)cc1Nc1nc(-c2sc(C)nc2C)cs1 [Example 30, 2-[3-(2′,4′-Dimethyl-[4,5′]bithiazolyl-2-ylamino)-4-methoxy-phenyl]-acetamide] | 4900 | > 95000 | 18000 | 4100
Cc1nc(N2CCN(C)CC2)sc1-c1csc(Nc2cc(C(N)=O)ccc2OC(C)C)n1 [Example 90, 4-Isopropoxy-3-[4′-methyl-2′-(4-methyl-piperazin-1-yl)-[4,5′]bithiazolyl-2-ylamino]-benzamide.TFA] | 170 | 680 | 37 | 100
Cc1nc(NC(=O)C2CCN(C)CC2)sc1-c1csc(Nc2cc(C(N)=O)ccc2OC(C)C)n1 [Example 32, 1-Methyl-piperidine-4-carboxylic acid [2-(5-carbamoyl-2-isopropoxy-phenylamino)-4′-methyl-[4,5′]bithiazolyl-2′-yl]-amide] | 250 | 1900 | 720 | 150
COc1ccc(C#N)cc1Nc1nc(-c2sc(C)nc2C)cs1 [Example 39, 3-(2′,4′-Dimethyl-[4,5′]bithiazolyl-2-ylamino)-4-methoxy-benzonitrile.TFA] | 1400 | > 95000 | 1100 | 760
CCN(CC)c1nc(C)c(-c2csc(Nc3cc(C(N)=O)ccc3OC(C)C)n2)s1 [Example 94, 3-(2′-Diethylamino-4′-methyl-[4,5′]bithiazolyl-2-ylamino)-4-isopropoxy-benzamide.TFA] | 1700 | 6100 | 310 | 400
CNC(=O)c1ccc(OC)c(Nc2nc(-c3sc(N)nc3C)cs2)c1 [Example 66, 3-(2′-Amino-4′-methyl-[4,5′]bithiazolyl-2-ylamino)-4-methoxy-N-methyl-benzamide.TFA] | 1800 | 2600 | 2800 | 4900
COc1c(F)cc(C(N)=O)cc1Nc1nc(-c2sc(C)nc2C)cs1 [Example 34, 3-(2′,4′-Dimethyl-[4,5′]bithiazolyl-2-ylamino)-5-fluoro-4-methoxy-benzamide] | 12000 | 28000 | 7800 | 9000
CCOc1ccc(C(=O)O)cc1Nc1nc(-c2sc(NC(C)=O)nc2C)cs1 [Example 48, 3-(2′-Acetylamino-4′-methyl-[4,5′]bithiazolyl-2-ylamino)-4-ethoxy-benzoic acid.HBr] | 3700 | 63000 | 23000 | 1400
CCOc1ccc(-c2ncco2)cc1Nc1nc(-c2sc(C)nc2C)cs1 [Example 80, (2′,4′-Dimethyl-[4,5′]bithiazolyl-2-yl)-(2-ethoxy-5-oxazol-2-yl-phenyl)-amine.TFA] | 1800 | 3600 | 23000 | 650
COc1ccc(C(N)=O)cc1Nc1nc(-c2sc(NC(C)=O)nc2C)cs1 [Example 85, 3-(2′-Acetylamino-4′-methyl-[4,5′]bithiazolyl-2-ylamino)-4-methoxy-benzamide.HBr] | 750 | 43000 | 3500 | 270
Cc1nc(N)sc1-c1csc(Nc2cc(C#N)ccc2OC(C)C)n1 [Example 71, 3-(2′-Amino-4′-methyl-[4,5′]bithiazolyl-2-ylamino)-4-isopropoxy-benzonitrile.HBr] | 95 | 42 | 280 | 870
Cc1cc2cccc(Nc3nc(-c4sc(C)nc4C)cs3)c2o1 [Example 29, (2′,4′-Dimethyl-[4,5′]bithiazolyl-2-yl)-(2-methyl-benzofuran-7-yl)-amine] | > 95000 | > 95000 | 61000 | 3800
COc1ccc(-c2cn[nH]c2)cc1Nc1nc(-c2sc(C)nc2C)cs1 [Example 138, (2′,4′-Dimethyl-[4,5′]bithiazolyl-2-yl)-[2-methoxy-5-(1H-pyrazol-4-yl)-phenyl]-amine] | 480 | 830 | 1700 | 730
COc1ccc(C(N)=O)cc1Nc1nc(-c2sc(N)nc2C)cs1 [Example 5, 3-(2′-Amino-4′-methyl-[4,5′]bithiazolyl-2-ylamino)-4-methoxy-benzamide.HBr] | 560 | 4900 | 270 | 850
CCN1CCCN(C(=O)c2nc(C)c(-c3csc(Nc4cc(C(N)=O)ccc4OC(C)C)n3)s2)CC1 [Example 114, 3-[2′-(4-Ethyl-[1,4]diazepane-1-carbonyl)-4′-methyl-[4,5′]bithiazolyl-2-ylamino]-4-isopropoxy-benzamide.TFA] | 960 | 1800 | 690 | 310
Cc1nc(CN2CCN(C(C)C)CC2)sc1-c1csc(Nc2cc(C(N)=O)ccc2OC(C)C)n1 [Example 125, 4-Isopropoxy-3-[2′-(4-isopropyl-piperazin-1-ylmethyl)-4′-methyl-[4,5]bithiazolyl-2-ylamino]-benzamide.TFA] | 3200 | 4900 | 580 | 780
CCOc1ccc(C(N)=O)cc1Nc1nc(-c2sc(C(=O)N(C)CCN(C)C)nc2C)cs1 [Example 123, 2-(5-Carbamoyl-2-ethoxy-phenylamino)-4′-methyl-[4,5′]bithiazolyl-2′-carboxylic acid (2-dimethylamino-ethyl)-methyl-amide.TFA] | 1000 | 1800 | 280 | 440
Cc1nc(CN2CCCN(C)CC2)sc1-c1csc(Nc2cc(C(N)=O)ccc2OC(C)C)n1 [Example 126, 4-Isopropoxy-3-[4′-methyl-2′-(4-methyl-[1,4]diazepan-1-ylmethyl)-[4,5′]bithiazolyl-2-ylamino]-benzamide.TFA] | 4700 | 11000 | 1100 | 770
Cc1nc(Nc2ccccn2)sc1-c1csc(Nc2cc(C(N)=O)ccc2OC(C)C)n1 [Example 96, 4-Isopropoxy-3-[4′-methyl-2′-(pyridin-2-ylamino)-[4,5′]bithiazolyl-2-ylamino]-benzamide.TFA] | 3800 | 16000 | 280 | ~5000
CCCOc1ccc(C(N)=O)cc1Nc1nc(-c2sc(C)nc2C)cs1 [Example 13, 3-(2′,4′-Dimethyl-[4,5′]bithiazolyl-2-ylamino)-4-propoxy-benzamide] | 5100 | 7000 | 830 | 6100
